Where a name gives a salt, the structure may show the parent alone.
Experiments:
[1] = tested on: akinesia of mice during forced swimming; test: mill wheel test (forced swimming), psychoanaleptic activity; assay type: in vivo
Procedure: This test was conducted in the following manner according to a method described in S. Nomura et al., Eur. J. Pharmacol., 83, 171 - 175 (1982).
Activities of each drug on the akinesia of mice during forced swimming were examined by a mill wheel test. Now the meaning of this test will be described. The akinesia observed during forced swimming of mice may be regarded as emotional disturbance since the animals resign escaping from the narrow environment (device) as the result of learning. It has been known that this akinesia can be shortened by drugs having psychoanaleptic effects such as antidepressants or MAO inhibitors. Namely, each drug was orally administered to a mouse. 40 minutes after the administration, the mouse was introduced into a water tank provided with a mill wheel and contained water at 25 °C. Then, the number of rotations of the wheel was counted throughout the observation period (6 minutes). However, P-CC2 was subcutaneously administered to avoid decomposition in digestive organ and the examination was conducted for 15 minutes thereafter (see Margaret M. Schweri, Joseph V. Martin, Wallace B. Mendelson, James E. Barrett, Steven M. Paul and Phil Skolnick, Life Science, 1505-1510, 33 (1983) and P. Skolnick, M. M. Schweri, S. M. Paul, J. V. Martin and W. B. Mendelson, Life Science, 2439-2445, 32 (1983)).

male Wister rats [2] = test: water lick conflict test, antianxiety activity (shocked number); assay type: in vivo; settings: electric shocks within 5 minutes, no-drug rat defined as 100 (n = 5)
Excerpt: (§1) The antianxiety activity and learning improvement activity of the compounds of the present invention were examined by using male Wister rats aged 6 weeks by a water lick conflict test by reference to a method described by Vogel J. R., Beer B. and Clody D. E. described in Psvcho^pharmacolo^qia, 1 - 7, 21 (1971).
(§2) In this test, rats having abstained from water were used and an electric shock was applied to the animals every time they drank water to bring the rats into an anxious state. Thus the activity of medicaments to the rats were determined.
Rats, having abstained from water for 24 hours prior to the test, were allowed to access to water. After 4 to 5 hours, a drug was administered to the animals. After a definite treatment period, the test was initiated. The shocked number means the number of electric shocks applied to the rats within 5 minutes after initially allowing them to access to water. […] That is, an increase in the shocked number means that the antianxiety activity is increased.

male Wister rats [3] = test: water lick conflict test, learning improvement activity (latent time); assay type: in vivo; settings: time until first drinking water, average of no-drug rats defined as 100 (n = 5)
Excerpt: as §1, §2
This test was conducted simultaneously with the measurement of the antianxiety activity (2) and aims at measuring the latent time when the rats abstinence from water first began to drink water.
A longer latent time means the higher learning improvement activity.

Wistar rats = test: subacute toxicity, oral administration for 35 days; settings: rat, in vivo
Procedure: (§3) Subacute toxicities of N-(2-aminoethyl)benzo[b]thieno-[2,3-c]pyridine-3-carboamide (A-6) and N-cyclohexyl-1,2,3,4-tetrahydrobenzo[b]thieno[2,3-c]pyridine-3-carboamide (A-9) were tested by orally administering these compounds to Wistar rats for 35 days. The test was conducted in the following manner.
(§4) Each compound was compulsory orally administered to Wistar SPF rats once a day between 9.00 a.m. to 11:30 a.m. by using a 2 ml or 5 ml disposable syringe and a rat gastric sound for 35 days continuously. Syringes were exchanged for each dose and for each compound. The administration period was determined by referring the initial day of the administration as to 0 day.

[4] = subacute toxicity, oral administration for 35 days; settings: rat, in vivo
Procedure: as §3, §4

[5] = 60 mg/kg orally, 40 minutes after administration, observation period 6 minutes, water at 25 °C

## CCOC(=O)c1cc2c(cn1)sc1ccccc12 [Compound A-1, benzo[b]thieno[2,3-c]pyridine-3-carboxylic acid ethyl ester]
[1]; [5]
  Numbers of Rotations of Wheel: 23.4±6.8
Male Wister rats [2]; 40 mg/kg P.O.
  Shocked Number: 117.1±25.7
Male Wister rats [3]; 40 mg/kg P.O.
  Latent Time: 132±29.9

## CCOC(=O)C1Cc2c(sc3ccccc23)CN1 (centres unmarked) [Compound A-2, l,2,3,4-tetrahydrobenzo[b]thieno[2,3-c]pyridine-3-carboxylic acid ethyl ester]
[1]; [5]
  Numbers of Rotations of Wheel: 26.5±2.9

## O=C(c1cc2c(cn1)sc1ccccc12)N1CCCNCC1 [Compound A-3, hexahydro-l-(benzo[b]-thieno[2,3-c]pyridine-3-carbonyl)-lH-1,4-diazepine]
[1]; [5]
  Numbers of Rotations of Wheel: 22.4±6.7

## O=C(c1cc2c(cn1)sc1ccccc12)N1CCCCC1 [Compound A-4, 1-(benzo[b]thieno[2,3-c]pyridine-3-carbonyl)piperidine]
[1]; [5]
  Numbers of Rotations of Wheel: 24.7±3.9

## O=C(c1cc2c(cn1)sc1ccccc12)N1CCOCC1 [Compound A-5, 4-(benzo[b]thieno[2,3-c]pyridine-3-carbonyl)morpholine]
[1]; [5]
  Numbers of Rotations of Wheel: 21.3±4.0

## NCCNC(=O)c1cc2c(cn1)sc1ccccc12 [Compound A-6, N-(2-aminoethyl)benzo[b]thieno[2,3-c]pyridine-3-carboamide]
[1]; [5]
  Numbers of Rotations of Wheel: 25.4±9.1
Wistar rats
  Toxic (lethal) Dose: 200 mg/kg
[4]; Safe Dose
  NOAEL at 840 h: 50 mg/kg
[4]; Subeffective Dose
  NOAEL at 840 h: 50 mg/kg

## CCNC(=O)C1Cc2c(sc3ccccc23)CN1 (centres unmarked) [Compound A-7, N-ethyl-1,2,3,4-tetrahydrobenzo[b]thieno(2,3-c]pyridine-3-carboamide]
[1]; [5]
  Numbers of Rotations of Wheel: 19.3±8.1
Male Wister rats [2]; 40 mg/kg P.O.
  Shocked Number: 127.1±31.5
Male Wister rats [3]; 40 mg/kg P.O.
  Latent Time: 232±34.7

## CCCCCCNC(=O)C1Cc2c(sc3ccccc23)CN1 (centres unmarked) [Compound A-8, N-hexyl-1,2,3,4-tetrahydrobenzo[b]-thieno[2,3-c]pyridine-3-carboamide]
[1]; [5]
  Numbers of Rotations of Wheel: 20.9±7.6
Male Wister rats [2]; 40 mg/kg P.O.
  Shocked Number: 111.8±28.6
Male Wister rats [3]; 40 mg/kg P.O.
  Latent Time: 249±36.6

## O=C(NC1CCCCC1)C1Cc2c(sc3ccccc23)CN1 (centres unmarked) [Compound A-9, N-cyclohexyl-1,2,3,4-tetrahydrobenzo[b]thieno-[2,3-c]pyridine-3-carboamide hydrochloride]
[1]; [5]
  Numbers of Rotations of Wheel: 37.1±8.0
Male Wister rats [2]; 30 mg/kg P.O.
  Shocked Number: 389±41
Male Wister rats [3]; 30 mg/kg P.O.
  Latent Time: 350±32
Wistar rats
  Toxic (lethal) Dose: 800 mg/kg
[4]; Safe Dose
  NOAEL at 840 h: 200 mg/kg
[4]; Subeffective Dose
  NOAEL at 840 h: 50 mg/kg

## Clc1ccc2sc3c(c2c1)CCNC3 [Compound C-1, 6-chloro-1,2,3,4-tetrahydrobenzo[b]-thieno[2,3-c]pyridine]
[1]; [5]
  Numbers of Rotations of Wheel: 24.3±4.3
Male Wister rats [2]; 40 mg/kg P.O.
  Shocked Number: 104.3±28.6
Male Wister rats [3]; 40 mg/kg P.O.
  Latent Time: 128±19.6

## CCOC(=O)c1cc2c(cn1)[nH]c1ccccc12 [β-CCE, β-carboline-3-carboxylic acid ethyl ester]
[1]; 10 mg/kg subcutaneously, examination 15 minutes thereafter
  Numbers of Rotations of Wheel: 23.6±4.1
Male Wister rats [2]; 40 mg/kg P.O.
  Shocked Number: 82.9±20.0
Male Wister rats [3]; 40 mg/kg P.O.
  Latent Time: 312±38.2

Source: patent EP0386258A1, “TETRAHYDROPYRIDINE DERIVATIVES” (Asahi Kasei Kabushiki Kaisha, priority 1988, dated 1990)
